Assay results as given in article PMC2642990, “The Glycogen-Binding Domain on the AMPK β Subunit Allows the Kinase to Act as a Glycogen Sensor” (Cell Metabolism, 2009).

How the values were obtained:
[1] = target: T1, recombinant AMPK complex (myc-α1:β1:γ1) (Rattus norvegicus, UniProt P80386); assay: recombinant wild-type AMPK expressed in CCL13 cells, assayed in anti-myc immunoprecipitates; format: biochemical; settings: 20 mM; Figure 5D
T1 construct: recombinant AMPK complex (myc-α1:β1:γ1) containing full-length (1–270) or truncated β1 subunit lacking the GBD (172–270); made in house; host or cells: human CCL13 cells, co-transfected; isolated by anti-myc immunoprecipitation
T1 sequence (P80386 whole entry, the tested form may be a part): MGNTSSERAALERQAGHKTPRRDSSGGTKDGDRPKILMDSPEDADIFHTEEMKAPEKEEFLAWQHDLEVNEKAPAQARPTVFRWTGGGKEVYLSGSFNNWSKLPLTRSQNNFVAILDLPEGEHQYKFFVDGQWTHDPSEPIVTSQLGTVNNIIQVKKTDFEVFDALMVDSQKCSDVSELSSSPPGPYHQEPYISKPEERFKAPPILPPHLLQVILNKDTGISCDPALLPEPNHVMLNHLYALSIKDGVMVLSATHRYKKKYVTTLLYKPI
T1 sequence (P54645 13-559 partner limits assumed): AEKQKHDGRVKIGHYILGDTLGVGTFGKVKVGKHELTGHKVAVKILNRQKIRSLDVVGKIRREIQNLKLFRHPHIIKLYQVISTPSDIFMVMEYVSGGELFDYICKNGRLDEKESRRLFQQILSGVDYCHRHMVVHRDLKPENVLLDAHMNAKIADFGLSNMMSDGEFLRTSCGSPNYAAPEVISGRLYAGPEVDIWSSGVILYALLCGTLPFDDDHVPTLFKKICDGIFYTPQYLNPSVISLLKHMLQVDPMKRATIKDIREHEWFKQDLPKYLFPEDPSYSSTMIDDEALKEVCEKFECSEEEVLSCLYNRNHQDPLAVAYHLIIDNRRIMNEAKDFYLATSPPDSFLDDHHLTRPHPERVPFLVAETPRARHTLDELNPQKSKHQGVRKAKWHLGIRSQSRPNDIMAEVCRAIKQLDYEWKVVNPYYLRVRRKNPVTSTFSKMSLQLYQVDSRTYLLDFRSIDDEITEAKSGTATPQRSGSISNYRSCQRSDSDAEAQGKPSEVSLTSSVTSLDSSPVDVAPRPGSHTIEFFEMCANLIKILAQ
T1 sequence (P80385 whole entry partner, the tested form may be a part): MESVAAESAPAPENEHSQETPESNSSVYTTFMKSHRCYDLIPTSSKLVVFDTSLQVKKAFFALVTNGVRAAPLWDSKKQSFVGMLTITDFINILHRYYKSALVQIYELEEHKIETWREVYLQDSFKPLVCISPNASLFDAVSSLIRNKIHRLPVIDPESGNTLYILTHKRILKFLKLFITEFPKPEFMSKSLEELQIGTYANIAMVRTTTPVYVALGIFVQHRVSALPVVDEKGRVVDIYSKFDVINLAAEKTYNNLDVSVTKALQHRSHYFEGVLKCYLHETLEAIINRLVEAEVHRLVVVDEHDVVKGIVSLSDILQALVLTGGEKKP
Excerpt: Figure 2 Allosteric Inhibition of AMPK by Different Glycogen Preparations (A) Concentration dependence of inhibition of native rat liver AMPK by preparations of bovine and rat liver glycogen; glycogen concentrations expressed as glucose produced after total hydrolysis. Data were fitted to an IC50 equation (see Supplemental Experimental Procedures), and curves were generated using the estimated best-fit parameters. (B) Concentration dependence of inhibition of native rat liver AMPK by bovine liver glycogen in the presence and absence of 200 μM AMP; curves were generated as in (A). (C) Inhibition by bovine liver glycogen of recombinant AMPK complex (myc-α1:β1:γ1) containing full-length (1–270) or truncated β1 subunit lacking the GBD (172–270). Complexes were expressed in CCL13 cells and purified by immunoprecipitation prior to assay with or without glycogen (200 mM glucose equivalents). Data are means ± SEM (n = 3). ^∗Activity different from control without glycogen by t test (p < 0.05). […] Results are expressed as percentages of the activity in controls without glycogen, and data are mean ± SEM (n = 3). […]

native rat liver AMPK = native rat liver AMPK (Rattus norvegicus, UniProt P80386); assay: AMPK kinase assay (SAMS peptide), native rat liver AMPK in solution; format: biochemical; settings: oligosaccharides; read-out: IC50 / half-maximal effect, inhibition of AMPK
Chain of native rat liver AMPK (P80386 2-270): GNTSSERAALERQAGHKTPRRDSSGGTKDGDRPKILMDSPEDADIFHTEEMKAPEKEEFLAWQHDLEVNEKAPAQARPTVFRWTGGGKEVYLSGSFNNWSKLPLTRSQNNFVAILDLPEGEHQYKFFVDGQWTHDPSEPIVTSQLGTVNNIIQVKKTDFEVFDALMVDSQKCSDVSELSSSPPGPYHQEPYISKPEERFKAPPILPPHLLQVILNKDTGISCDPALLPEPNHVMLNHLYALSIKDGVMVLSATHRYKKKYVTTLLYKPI
Chain of native rat liver AMPK (P54645 whole entry partner): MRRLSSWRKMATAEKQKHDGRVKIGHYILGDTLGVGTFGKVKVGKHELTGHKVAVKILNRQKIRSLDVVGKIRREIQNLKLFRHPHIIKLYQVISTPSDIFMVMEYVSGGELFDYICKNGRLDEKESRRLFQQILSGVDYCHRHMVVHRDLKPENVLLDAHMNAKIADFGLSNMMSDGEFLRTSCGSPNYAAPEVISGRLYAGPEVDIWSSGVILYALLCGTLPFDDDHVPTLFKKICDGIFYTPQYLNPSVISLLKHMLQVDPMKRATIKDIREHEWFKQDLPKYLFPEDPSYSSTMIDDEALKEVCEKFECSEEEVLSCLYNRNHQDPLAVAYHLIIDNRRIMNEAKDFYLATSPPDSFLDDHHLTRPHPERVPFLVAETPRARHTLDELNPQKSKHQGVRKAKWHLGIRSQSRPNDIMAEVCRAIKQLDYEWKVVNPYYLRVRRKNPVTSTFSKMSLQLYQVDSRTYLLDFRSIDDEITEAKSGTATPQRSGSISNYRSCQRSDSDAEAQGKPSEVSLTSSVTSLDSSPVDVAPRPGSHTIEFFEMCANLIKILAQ
Chain of native rat liver AMPK (Q09137 whole entry partner): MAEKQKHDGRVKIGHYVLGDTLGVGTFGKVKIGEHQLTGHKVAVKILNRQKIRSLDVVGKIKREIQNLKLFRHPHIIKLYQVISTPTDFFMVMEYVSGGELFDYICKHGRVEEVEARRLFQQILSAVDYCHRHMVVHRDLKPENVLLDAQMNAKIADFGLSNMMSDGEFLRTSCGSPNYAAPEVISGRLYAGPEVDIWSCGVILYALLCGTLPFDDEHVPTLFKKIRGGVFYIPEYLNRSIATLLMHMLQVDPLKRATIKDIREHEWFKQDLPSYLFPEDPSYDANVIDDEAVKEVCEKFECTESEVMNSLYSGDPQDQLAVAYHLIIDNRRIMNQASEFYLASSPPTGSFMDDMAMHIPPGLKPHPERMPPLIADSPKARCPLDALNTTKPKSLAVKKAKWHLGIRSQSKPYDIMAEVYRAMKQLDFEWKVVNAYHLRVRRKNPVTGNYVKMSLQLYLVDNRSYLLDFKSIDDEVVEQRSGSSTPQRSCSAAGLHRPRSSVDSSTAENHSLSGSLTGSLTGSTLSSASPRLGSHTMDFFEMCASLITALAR
Chain of native rat liver AMPK (P80385 whole entry partner): as the sequence (P80385 whole entry partner, the tested form may be a part) above
Method: We next tested the effect of glycogen on the activity of the native AMPK complex purified from rat liver ([Hawley et al., 1996]). […] The bovine liver glycogen inhibited AMPK completely with an IC50 (concentration causing half-maximal inhibition) of 30 ± 9 mM glucose equivalents (Figure 2A).
Figure 2 Allosteric Inhibition of AMPK by Different Glycogen Preparations (A) Concentration dependence of inhibition of native rat liver AMPK by preparations of bovine and rat liver glycogen; glycogen concentrations expressed as glucose produced after total hydrolysis. Data were fitted to an IC50 equation (see Supplemental Experimental Procedures), and curves were generated using the estimated best-fit parameters. (B) Concentration dependence of inhibition of native rat liver AMPK by bovine liver glycogen in the presence and absence of 200 μM AMP; curves were generated as in (A). (C) Inhibition by bovine liver glycogen of recombinant AMPK complex (myc-α1:β1:γ1) containing full-length (1–270) or truncated β1 subunit lacking the GBD (172–270). Complexes were expressed in CCL13 cells and purified by immunoprecipitation prior to assay with or without glycogen (200 mM glucose equivalents). Data are means ± SEM (n = 3). ^∗Activity different from control without glycogen by t test (p < 0.05). (D) Inhibition by bovine liver glycogen (200 mM glucose equivalents) of purified, native rat liver AMPK (a mixture of α1β1γ1 and α2β1γ1 complexes) that had been recovered by immunoprecipitation (IP) using anti-α1, anti-α2, or a mixture of anti-α1/-α2 antibodies or assayed in solution without immunoprecipitation. Results are expressed as percentages of the activity in controls without glycogen, and data are mean ± SEM (n = 3). (E) Absorption spectra of bovine and rat liver glycogen preparations in complex with iodine. […]
Purification of Native Rat Liver, AMPK, Recombinant AMPK, and AMPK Assays AMPK was purified from rat liver as far as the gel filtration step (Hawley et al., 1996). The kinase was assayed using the SAMS peptide (Davies et al., 1989). IC50 values for inhibition were estimated by fitting data using GraphPad Prism to the equation: Activity = Residual + Maximum - (Maximum × [Inhibitor]/(IC50+[Inhibitor])) where Residual is the activity in the presence of maximal inhibition, Maximum is the maximal inhibition and [inhibitor] is the concentration of the inhibitory molecule. For recombinant AMPK, constructs encoding myc-tagged α1, β1 and γ1 subunits of AMPK were co-transfected into CCL13 cells using modifications of previous methods (Woods et al., 1996). DNA (10 µg) was dissolved in sterile water (450 µl) to which 50 μl of 2.5 M CaCl2 was added, and the solution vortexed for 1 min. […]

With `OC[C@H]1O[C@H](OC[C@H]2OC(O)[C@H](O)[C@@H](O)[C@@H]2O)[C@H](O)[C@@H](O)[C@@H]1O` (some centres unmarked) [isomaltose] the “inhibition of wild-type recombinant α1β1γ1” value [1] was “inhibited” and the IC50 (native rat liver AMPK) was 16 mM.
